Data: PubChem BioAssay AID179 (DTP/NCI, 2004)
pEC50, pIC50: −log10 of the molar value. Active and inactive are the calls of the source.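 Rule for the calls: active = compounds giving half or more protection of infected cells from virus-caused growth loss, again on retest; inactive = the rest.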 Where a SMILES comes first, the peptide text is derived from it. [ ]: non-standard residue; d: D form. The star is where a group is joined. Chg = N[CH](C(=O)O)C1CCCCC1; Cbz = O=C(OCc1ccccc1)*; OBn = c1ccc(CO*)cc1

System: CEM cells HIV-1 protection, formazan growth assay
Test: NCI AIDS Antiviral Assay
Settings: for pIC50: measured here: growth of uninfected CEM cells
Summary of the method: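 Five concentrations of each compound were applied to infected and uninfected human CEM cells. Protection from HIV-1 was judged from growth measured with a soluble formazan assay.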

CCN(C(=O)N[C@@H](C)C(=O)N[C@@H](Cc1ccccc1)C(=O)OC)c1ccccc1
outcome: inactive

O=C(NNC(=S)Nc1ccc(Cl)cc1)c1cc(-c2ccccc2)nc2ccccc12
pEC50: < 3.70 | pIC50: 5.07

O=c1c2ccccc2nc(-c2cccc(Cl)c2)n1NC1OC(CO)C(O)C(O)C1O (stereo not given)
outcome: inactive

O=S(=O)(O)C1=C2Sc3ccccc3N=C2c2ccccc2C1
pEC50: < 3.85 | pIC50: 5.10

CCSC1=N/C(=C\c2ccccc2O)C(Nc2ccc(C)cc2)=N1
pEC50: < 4.00 | pIC50: < 4.00

O=C1CNC(=O)c2c(ncn2C2OC(CO)C(O)C2O)N1 (stereo not given)
pEC50: < 3.67 | pIC50: < 3.67

CC(C)(C)OC(=O)N[C@H]1CC(O)c2ccccc2N(CC(=O)O)C1=O (stereo not given in full)
pEC50: < 3.60 | pIC50: < 3.60

O=C(OCCN=C1c2ccccc2CCc2ccccc21)c1cc([N+](=O)[O-])cc([N+](=O)[O-])c1
pEC50: < 3.70 | pIC50: 4.15

COc1ccc(/C=C\c2cc(OC)c(OC)c(OC)c2)cc1OC(=O)C(N)CCC(=O)O (stereo not given)
pEC50: < 3.35

C=C1CC(c2ccc(O)c(OC)c2)Oc2c(OC)cccc21 (stereo not given)
pEC50: < 3.50 | pIC50: 4.49

COc1ccc(C(=O)/C=C/c2ccc3c(c2)OCO3)c(O)c1
pEC50: < 3.70 | pIC50: 4.09

O=C(/C=C(\O)C(=O)O)/C=C(\O)c1ccccc1
pEC50: < 3.70 | pIC50: < 3.70

COC(=O)C(NC(=O)C(CC(=O)OCc1ccccc1)NC(=O)OCc1ccccc1)C1CCCCC1 (stereo not given) (Cbz-Asp(OBn)-[Chg]-OMe; configuration not given here)
pEC50: < 3.70 | pIC50: 3.98

COC(=O)C(CC12CC3CC(CC(C3)C1)C2)NC(=O)C(N)CC(=O)O (stereo not given)
pEC50: < 3.70 | pIC50: < 3.70

CC1(C)CC2CCC(O)C2C(CCO)N1 (stereo not given)
pEC50: < 3.70 | pIC50: < 3.70

Cc1[nH]nc2c1NC(=O)OC2C (stereo not given)
pEC50: < 2.83 | pIC50: 2.92

N#C/C(=C\c1ccc(Cl)cc1)c1ccc(C(=O)O)cc1
pEC50: < 3.70 | pIC50: 3.96

CC(C)(C)/C(CC(=O)CCC(=O)Nc1ccc(Cl)cc1)=N\NC(N)=S
outcome: inactive

[O-]c1csc2n(-c3ccccc3)c3ccccc3[n+]12
pEC50: < 3.70 | pIC50: < 3.70

CC1(C)CN(C(=O)OCc2ccccc2)[C@@H]2N1C(=O)[C@@]2(C)OCCCO[C@]1(C)C(=O)N2[C@H]1N(C(=O)OCc1ccccc1)CC2(C)C
pEC50: < 3.70 | pIC50: < 3.70

Cn1c(-c2cccs2)cc(-c2ccccc2)c1-c1cccs1
pEC50: < 3.70 | pIC50: < 3.70

Nc1nc(N)c(N=O)c(Nc2ccccc2)n1
pEC50: < 3.70 | pIC50: 4.47

CCC1N2CCCCC2[C@@H]2c3[nH]c4ccccc4c3CCN12 (stereo not given in full)
pEC50: < 3.35 | pIC50: 3.41

O=S(=O)(O)CCCNC(CO)(CO)CO
pEC50: < 3.70 | pIC50: < 3.70

COc1ccc2[nH]c3c(c2c1)CC(=S)N1CCCC(CC3=O)C1 (stereo not given)
pEC50: < 3.70 | pIC50: 4.21

COc1cc(C2c3cc(O)c(OC)cc3C[C@H]3C(=O)OCC23)ccc1O (stereo not given in full)
pEC50: < 3.85 | pIC50: < 3.85

CCCCCCCCCCCCCCCCNC(=O)/C(=C\c1ccc(Cl)c(Cl)c1)NC(=O)c1ccccc1
pEC50: < 4.00 | pIC50: 4.70

Cc1ccc(NC(=O)/C(CC(=O)c2c[n+](=O)c3ccccc3n2O)=N\NC(=O)C[n+]2ccccc2)cc1
pEC50: < 4.36 | pIC50: < 4.36

O=C(NCCNCCCNC(=O)c1cc(-c2ccccc2)nc2ccccc12)c1cccc(O)c1O
pEC50: < 3.70 | pIC50: 5.49

CO[C@]12[C@@H](COC(=O)NCCO)C3=C(C(=O)C(C)=C(N)C3=O)N1C[C@@H]1[C@H]2N1C (stereo not given in full)
pEC50: < 3.70 | pIC50: 4.28

CNC(=O)Nc1ccncc1
pEC50: < 3.70 | pIC50: < 3.70

CC(NP(=O)(c1ccccc1)c1ccccc1)c1ccccc1 (stereo not given)
pEC50: < 3.70 | pIC50: < 3.70

CCOC(=O)C1=C(O)C(=O)c2ccsc2C1=O
pEC50: < 3.15 | pIC50: 3.92

Cc1nc(N)nc2c1CCC(O)S2 (stereo not given)
pEC50: < 3.70 | pIC50: 5.99

O=C(NCCCCCCCCCCNC(=O)c1cc(O)c(O)c(O)c1)c1cc(O)c(O)c(O)c1
pEC50: < 4.00 | pIC50: 5.04

CC(=O)Nc1ccc(S(=O)(=O)c2ccc(NC(C)=O)cc2)cc1
pEC50: < 3.70 | pIC50: < 3.70

COC(=O)[C@@H]1Cc2c3n(c4ccccc24)C(=O)CCC3N1C (stereo not given in full)
pEC50: < 3.38 | pIC50: 3.53

C=C1OC(=O)/C(=C/CCCCCCCCCCCCCCCCC)[C@@H]1O
pEC50: < 4.56 | pIC50: < 4.56

O=C(O)c1cc(C(=CCC23CC4CC(CC(C4)C2)C3)c2cc(Cl)c(O)c(C(=O)O)c2)cc(Cl)c1O
pEC50: < 3.70 | pIC50: 3.98

COc1ccc(N=N/C(=N/NC(=O)c2ccccc2)c2ccc(N(CCC#N)CCC#N)cc2C)cc1
pEC50: < 3.70 | pIC50: 4.94

COC(=O)C1Cc2cc3c(cc2C1)CCC3
pEC50: < 3.70 | pIC50: < 3.70

O=c1cc2ccccc2nn1-c1ccccc1Cl
pEC50: < 3.58 | pIC50: 3.96
